From patent US20230277669A1, “USES OF UROLITHINS” (Amazentis SA, priority 2022, published 2023)

Assays:
[1] = test system: CEA-expressing human CRC organoids; assay: Killing of CEA-expressing CRC organoids by CEA-specific CAR T cells; type: cell-based; settings: 72 h co-culture
human CD8^+ T cells = assay: Human CD3+ T cells from PBMC stimulated with aCD3/aCD28 beads in presence of UA; type: cell-based; parameters: frequency of human TSCM cells (CD45RA+CCR7hiCD62L+CD95+CD8+): dose or concentration left out as unconfirmed
Description: (FIG. 5L) UA induces PGC-1α expression in stimulated CD8+ cells. PGC-1α MFI at 48 h upon stimulation, as assessed by intracellular staining, is shown (n=3). One of two independent experiments are shown. Data are mean ± SD, statistical analysis was performed by two-sided t-test (p**<0.01). (FIG. 5M) Mitochondrial content of TIL CD8+ cells harvested from APTK-carrying mice, fed UA or control diet as depicted in FIG. 1J. Assessed by Mitotracker Red staining. Data are mean ± SD, *p < 0.05 by two-sided t-test. (FIG. 5N) Mitophagy and subsequent PGAM5 release drive PGC-1α upregulation. PGC-1α expression of CD8+ cells derived from Pink1^-/- KO mice upon 48 h stimulation in vitro in the presence of UA or DMSO control (n=4). Data are mean ± SD, statistical analysis was performed by two-sided t-test. Depicts one of two independent experiments. (FIG. 5O) Mitophagy and subsequent PGAM5 release drive PGC-1 α upregulation. PGC-1α expression of CD8+ cells derived from PGAM5^-^/- mice upon 48 h stimulation in vitro in the presence of UA or DMSO control (n=4). Data are mean ± SD, statistical analysis was performed by two-sided t-test. […] Cells were co-treated with DMSO, UA and an inhibitor of PGC-1α (PGC-1αi) as indicated (n=4). One of two independent experiments are shown. Data are mean ± SD, statistical analysis was performed by two-sided t-test (p**<0.01; ***p <0.001; n.s. not significant).(FIG. 5Q) Urolithin A induces TSCM in human CD8+ cells: Schematic overview. PBMC were isolated from healthy donors, prior to T cell purification and in vitro stimulation via aCD3/aCD28 stimulation beads at the presence of UA or DMSO control. (FIG. 5R) Quantification of human TSCM (n=4). Representative data of one out of five donors with the same result are shown. (FIG. 5S) Quantification of TMRM^loCD8+ human cells 48 h after activation in the presence of UA or DMSO control (n=4). (FIG. 5T) TCF1 expression in human CD8 cells as assessed by flow cytometry (n=4). All data are mean ± SD; statistical analysis was performed by two-sided t-test (*p < 0.05; p**<0.01; p****0.0001).
(FIG. 6A) Human PBMC were isolated from healthy donors, T cells were purified and stimulated ex-vivo with αCD3/αCD28 in the presence of UA ([…]) or DMSO control.
(FIG. 6B) Frequency of human TSCM 48 h after stimulation as shown in (A). Data are mean ± SD, n=4, ****p<0.0001 by one-way ANOVA followed by Tukey’s multiple comparison test.
(FIG. 6C) Quantification of human TMRM^loCD8^+ T cells 48 h after stimulation in the presence of UA or DMSO control .Data are mean ± SD, n=4,**p<0.01 by two-sided t test.
(FIG. 6D) TCF1 expression in human CD8+ T cells 48 h after stimulation in the presence of UA or DMSO control. Data are mean ± SD, n=4,*p<0.05by two-sided t test. […]

Q: How did the “killing efficacy of CEA-expressing human CRC organoids” value [1] turn out when O=c1oc2cc(O)ccc2c2ccc(O)cc12 [Urolithin A] was run?
A: comparable killing efficacy

Q: And the “CD95hiCD62L+ cells within the CD45RA+CCR7hiCD8+ compartment” value (human CD8^+ T cells)?
A: dose-dependent increase

Q: And the “TCF1 expression (intracellular staining)” value (human CD8^+ T cells; 48 h)?
A: increased TCF1 expression

Q: What about the “frequency of human TSCM cells (CD45RA+CCR7hiCD62L+CD95+CD8+)” value (human CD8^+ T cells; 48 h, five out of five individual donors) of the same compound?
A: increased the frequency

Q: What about the mitochondrial membrane potential (human CD8^+ T cells; after 48 hours) of the same compound?
A: decreased mitochondrial membrane potential
